Patent US20190062305A1, “PYRIDYL OR PYRAZINYL COMPOUNDS CARRYING A METHYL-BOUND ALPHA-AMINO ACID AMIDE GROUP” (ABBVIE DEUTSCHLAND GMBH & CO. KG, priority 2015, published 2019)
Where a name gives a salt, the structure may show the parent alone.

Experiments:
[1] = Metabolic stability in human liver microsomes, unbound intrinsic clearance (Cl int/fu mic); assay type: in vitro ADME; details: 0.5 μM compound, NADPH; for CLint scaled at 0.5 μM: human, liver microsomes, pH 7.4, human liver microsomes 0.25 mg/mL, read-out: Cl int, mic unb. (h) [l/h/kg] (unbound intrinsic clearance, human)
Protocol: Samples of the tested compounds (0.5 μM) were preincubated together with human liver microsomes (0.25 mg of microsomal protein/mL) in 0.05 M potassium phosphate buffer of pH 7.4 in microtiter plates at 37° C. for 5 minutes. The reaction was started by adding NADPH (1.0 mM). After 0, 5, 10, 15, 20 and 30 minutes, an aliquot was removed, the reaction was cooled and stopped by adding twice the amount of quench solution consisting of acetonitrile/methanol 1:1, and containing 0.2 μM carbutamide as internal standard. The samples were frozen until analyzed. The remaining concentration of undegraded test substance was determined by liquid chromatography-tandem mass spectrometry (LC-MS/MS). The half-life (t1/2) was determined from the gradient of the ratio of the signal of (test substance/internal standard)/unit time plot, allowing the calculation of the half-life of the test substance, assuming first order kinetics, from the decrease in the concentration of the compound with time. The microsomal clearance ([…]) was calculated as follows: […]=((ln(2)/t 1⁄2)/Microsomal Protein Concentration (mg/ml))*1000, leading to the unit of uL/min/mg. The scaled clearance (mClin_scaled) was calculated as […]_scaled=m CLint*(Microsomal Yield (mg/kg BW))/1000000*60, leading to the units L/h/kg. The Microsomal Yield is defined by the specifics of the used microsomes. Calculations were modified from references: Di, The Society for Biomolecular Screening, 2003, 453-462; Obach, D M D, 1999 vol 27. N 11, 1350-1359. A suspension of 0.25 mg/ml microsomal protein spiked with 0.5 μM of test compound was pipetted on one side of a HTDialysis device (HTDialysis LLC, 37 Ledgewood Drive, Gales Fery CT 06335) separated by a membrane with a MWcut off 12-14 K. 50 mM K-Phosphate buffer (pH 7.4) was added on the other side of the well. After incubation at 37° C. for 4 h while shaking at 150 rpm, aliquots of both sides were taken, quenched with MeOH/ACN 1:1 and 0.2 μM of internal standard and frozen until analysis by LCMSMS Cl int unbound=Cl int/fu mic

[2] = target: T1, 5-HT2C receptor (Homo sapiens, UniProt P28335); experiment: Human 5-HT2C functional assay (beta-arrestin2 recruitment, U2OS_HTR2C_β-Arrestin cells); assay type: cell-based; details: for EC50: beta-arrestin2 recruitment, U2OS_HTR2C_β-Arrestin cells, 1.5 h incubation, read-out: EC50 5-HT2C (potency in functional assay)
T1 construct: host or cells: U2OS
Protocol: The functional activity of compounds of formula I was assayed by incubation with U2OS_HTR2C_β-Arrestin cells (DiscoverX, 93-0289C3) to induce beta-arrestin2 recruitment to the 5-HT2C receptor. The agonist-induced recruitment and proximity of the receptor and beta-arrestin2 leads to complementation and formation of active β-galactosidase. The enzyme complementation results in enzyme activity, which is measured following the termination of the agonist incubation using DiscoveRx's detection reagent, which contains a chemiluminescent substrate which produces a high intensity signal. Cells were plated and a medium-change to a 1% serum containing medium was performed 24h later. The next day, test compounds were added and incubated for 1.5 h before addition of detection reagent.
The response produced was measured and compared with the response produced by 10 [mu]M 5-HT or the maximal effect induced by 5-HT (defined as 100%) to which it was expressed as a percentage response (relative efficacy). Dose response curves were constructed using Graphpad Prism (Graph Software Inc.) or using in house adapted software using a 4 parameter dose response model with variable slope (fit=(Bottom+(Top-Bottom)/(1+10^∧((Log EC50−x)*HillSlope))res=(y-fit)). Results are compiled in the table below.

[3] = relative efficacy vs response to 10 μM 5-HT or maximal 5-HT effect (100%)

T1 sequence (P28335 33-458): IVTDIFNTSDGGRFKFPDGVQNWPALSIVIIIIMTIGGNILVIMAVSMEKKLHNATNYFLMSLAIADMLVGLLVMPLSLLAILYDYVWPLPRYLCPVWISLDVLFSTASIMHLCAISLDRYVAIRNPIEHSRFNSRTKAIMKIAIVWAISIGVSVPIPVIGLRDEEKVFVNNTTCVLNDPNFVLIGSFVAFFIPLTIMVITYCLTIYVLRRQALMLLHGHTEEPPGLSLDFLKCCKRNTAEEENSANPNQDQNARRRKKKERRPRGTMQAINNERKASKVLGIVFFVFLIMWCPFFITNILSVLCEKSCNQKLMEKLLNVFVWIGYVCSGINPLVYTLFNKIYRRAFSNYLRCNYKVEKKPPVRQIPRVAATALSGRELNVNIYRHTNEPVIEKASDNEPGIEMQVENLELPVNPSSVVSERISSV
T1 sequence (P32121 whole entry partner): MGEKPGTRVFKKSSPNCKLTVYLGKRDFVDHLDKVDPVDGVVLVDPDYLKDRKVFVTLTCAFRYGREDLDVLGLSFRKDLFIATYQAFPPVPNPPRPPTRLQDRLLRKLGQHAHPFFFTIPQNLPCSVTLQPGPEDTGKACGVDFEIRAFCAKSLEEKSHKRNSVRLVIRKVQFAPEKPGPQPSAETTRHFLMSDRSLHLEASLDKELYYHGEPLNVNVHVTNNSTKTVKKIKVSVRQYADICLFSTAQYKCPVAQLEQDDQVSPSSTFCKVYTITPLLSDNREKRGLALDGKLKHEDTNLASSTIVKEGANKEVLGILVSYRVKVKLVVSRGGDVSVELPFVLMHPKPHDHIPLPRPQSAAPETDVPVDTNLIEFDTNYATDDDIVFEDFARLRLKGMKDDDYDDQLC

Compound: COc1nc(NC2CCC(C(F)(F)F)CC2)c(F)cc1CN(C)C(=O)[C@@H]1CCCN1 (mixture of isomers) [Example 157, (2S)—N-[[5-fluoro-2-methoxy-6-[[4-(trifluoromethyl)cyclohexyl]amino]-3-pyridyl]methyl]-N-methyl-pyrrolidine-2-carboxamide; 2,2,2-trifluoroacetic Acid]
- CLint scaled at 0.5 μM [1]: 5 to 50 L/h/kg
- EC50 [2]: 200 to 1000 nM
- Emax [2, 3]: 50 to 70%

Compound: COc1nc(O[C@H]2CCC[C@@H](C(F)(F)F)C2)c(F)cc1CNC(=O)[C@@H]1CCCN1 (relative stereo) [Example 88, (2S)—N-[[5-Fluoro-2-methoxy-6-[(1S,3R)-3-(trifluoromethyl)cyclohexoxy]-3-pyridyl]methyl]pyrrolidine-2-carboxamide Hydrochloride]
- CLint scaled at 0.5 μM [1]: 5 to 50 L/h/kg
- EC50 [2]: < 20 nM
- Emax [2, 3]: > 70%

Compound: COc1nc(O[C@H]2CCC[C@H](C(F)(F)F)C2)c(F)cc1CNC(=O)[C@@H]1CCCN1 (relative stereo) [Example 89, (2S)—N-[[5-Fluoro-2-methoxy-6-[(1S,3S)-3-(trifluoromethyl)cyclohexoxy]-3-pyridyl]methyl]pyrrolidine-2-carboxamide Hydrochloride]
- CLint scaled at 0.5 μM [1]: 5 to 50 L/h/kg
- EC50 [2]: < 20 nM
- Emax [2, 3]: > 70%

Compound: COc1nc(OC2CCC(C(C)(F)F)CC2)c(F)cc1CNC(=O)[C@@H]1CCCN1 (single isomer, unassigned; isomer 1) [Example 73]
- CLint scaled at 0.5 μM [1]: 5 to 50 L/h/kg
- EC50 [2]: 200 to 1000 nM
- Emax [2, 3]: > 70%

Compound: COc1nc(OC2CCC(C(C)(F)F)CC2)c(F)cc1CNC(=O)[C@@H]1CCCN1 (single isomer, unassigned; isomer 2) [Example 74]
- Cl int, mic unb. (h) [l/h/kg] (unbound intrinsic clearance, human) ([1]; human liver microsomes 0.25 mg/mL): ++ (from 5 to <50 l/h/kg)
- EC50 [2]: < 20 nM
- % efficacy [2, 3]: +++ (>70%)

Compound: COc1nc(OC2CCC(F)(F)CC2)c(F)cc1CNC(=O)[C@@H]1CCCN1 [Example 1, (2S)—N-[[6-(4,4-Difluorocyclohexoxy)-5-fluoro-2-methoxy-3-pyridyl]methyl]-pyrrolidine-2-carboxamide; Fumaric Acid]
- CLint scaled at 0.5 μM [1]: < 5 L/h/kg
- EC50 [2]: < 20 nM
- Emax [2, 3]: > 70%

Compound: COc1nc(OCc2ccccc2)c(F)cc1CNC(=O)[C@@H]1CCCN1 [Example 2, (2S)—N-[(6-Benzyloxy-5-fluoro-2-methoxy-3-pyridyl)methyl]pyrrolidine-2-carboxamide; 2,2,2-trifluoroacetic Acid]
- CLint scaled at 0.5 μM [1]: < 5 L/h/kg
- EC50 [2]: < 20 nM
- Emax [2, 3]: > 70%

Compound: COc1nc(OCC2CCCCC2)c(F)cc1CNC(=O)[C@@H]1CCCN1 [Example 3, (2S)—N-[[6-(Cyclohexylmethoxy)-5-fluoro-2-methoxy-3-pyridyl]methyl]pyrrolidine-2-carboxamide; 2,2,2-trifluoroacetic acid]
- CLint scaled at 0.5 μM [1]: 5 to 50 L/h/kg
- EC50 [2]: < 20 nM
- Emax [2, 3]: > 70%

Compound: COc1nc(OCC2CCC(F)(F)CC2)c(F)cc1CNC(=O)[C@@H]1CCCN1 [Example 4, (2S)—N-[[6-[(4,4-Difluorocyclohexyl)methoxy]-5-fluoro-2-methoxy-3-pyridyl]-methyl]pyrrolidine-2-carboxamide; Fumaric Acid]
- CLint scaled at 0.5 μM [1]: 5 to 50 L/h/kg
- EC50 [2]: < 20 nM
- Emax [2, 3]: > 70%

Compound: COc1nc(OCC2CCC(F)(F)C2)c(F)cc1CNC(=O)[C@@H]1CCCN1 (stereo partly drawn) [Example 6, (2S)—N-[[6-[(3,3-Difluorocyclopentyl)methoxy]-5-fluoro-2-methoxy-3-pyridyl]-methyl]pyrrolidine-2-carboxamide; Fumaric Acid]
- CLint scaled at 0.5 μM [1]: < 5 L/h/kg
- EC50 [2]: < 20 nM
- Emax [2, 3]: > 70%

Compound: COc1nc(OCC2CCC(F)(F)C2)c(F)cc1CNC(=O)[C@@H]1CCCN1C (stereo partly drawn) [Example 7, (2S)—N-[[6-[(3,3-Difluorocyclopentyl)methoxy]-5-fluoro-2-methoxy-3-pyridyl]-methyl]-1-methyl-pyrrolidine-2-carboxamide; Fumaric Acid]
- CLint scaled at 0.5 μM [1]: < 5 L/h/kg
- EC50 [2]: < 20 nM
- Emax [2, 3]: > 70%

Compound: COc1nc(O[C@H]2CC[C@H](C(F)(F)F)CC2)c(F)cc1CNC(=O)[C@@H]1CCCN1C [Example 8, (2S)—N-[[5-Fluoro-2-methoxy-6-[trans-4-(trifluoromethyl)cyclohexoxy]-3-pyridyl]methyl]-1-methyl-pyrrolidine-2-carboxamide; Fumaric Acid]
- CLint scaled at 0.5 μM [1]: 5 to 50 L/h/kg
- EC50 [2]: < 20 nM
- Emax [2, 3]: > 70%

Compound: COc1nc(OCC2CCC(F)(F)CC2)c(F)cc1CNC(=O)[C@@H]1CCCN1C [Example 9, (2S)—N-[[6-[(4,4-Difluorocyclohexyl)methoxy]-5-fluoro-2-methoxy-3-pyridyl]methyl]-1-methyl-pyrrolidine-2-carboxamide; Fumaric Acid]
- CLint scaled at 0.5 μM [1]: 5 to 50 L/h/kg
- EC50 [2]: < 20 nM
- Emax [2, 3]: > 70%

Compound: COc1nc(OC2CCC(F)(F)CC2)c(F)cc1CNC(=O)[C@@H]1CCCN1C [Example 10, (2S)—N-[[6-(4,4-Difluorocyclohexoxy)-5-fluoro-2-methoxy-3-pyridyl]methyl]-1-methyl-pyrrolidine-2-carboxamide; Fumaric Acid]
- CLint scaled at 0.5 μM [1]: 5 to 50 L/h/kg
- EC50 [2]: < 20 nM
- Emax [2, 3]: > 70%

Compound: COc1nc(O[C@H]2CC[C@H](C(F)(F)F)CC2)c(F)cc1CNC(=O)[C@@H]1CCCN1 [Example 11, (2S)—N-[[5-Fluoro-2-methoxy-6-[trans-4-(trifluoromethyl)cyclohexoxy]-3-pyridyl]methyl]pyrrolidine-2-carboxamide; Fumaric Acid]
- CLint scaled at 0.5 μM [1]: 5 to 50 L/h/kg
- EC50 [2]: < 20 nM
- Emax [2, 3]: > 70%

Compound: COc1nc(OC2CCC(OC)CC2)c(F)cc1CNC(=O)[C@@H]1CCCN1 (stereo partly drawn) [Example 12, (2S)—N-[[5-Fluoro-2-methoxy-6-(4-methoxycyclohexoxy)-3-pyridyl]methyl]-pyrrolidine-2-carboxamide; Fumaric Acid]
- CLint scaled at 0.5 μM [1]: < 5 L/h/kg
- EC50 [2]: 20 to 200 nM
- Emax [2, 3]: > 70%

Compound: COc1nc(OC2CCC(OC)CC2)c(F)cc1CNC(=O)[C@@H]1CCCN1C (stereo partly drawn) [Example 13, (2S)—N-[[5-Fluoro-2-methoxy-6-(4-methoxycyclohexoxy)-3-pyridyl]methyl]-1-methyl-pyrrolidine-2-carboxamide; Fumaric Acid]
- CLint scaled at 0.5 μM [1]: < 5 L/h/kg
- EC50 [2]: 20 to 200 nM
- Emax [2, 3]: > 70%

Compound: COc1nc(OCC2CCC(C(F)(F)F)CC2)c(F)cc1CNC(=O)[C@@H]1CCCN1 (stereo partly drawn) [Example 14, (2S)—N-[[5-Fluoro-2-methoxy-6-[[4-(trifluoromethyl)cyclohexyl]methoxy]-3-pyridyl]methyl]pyrrolidine-2-carboxamide; Fumaric Acid]
- CLint scaled at 0.5 μM [1]: 50 to 500 L/h/kg
- EC50 [2]: < 20 nM
- Emax [2, 3]: > 70%

Compound: COc1nc(OCC2CCC(C(F)(F)F)CC2)c(F)cc1CNC(=O)[C@@H]1CCCN1C (stereo partly drawn) [Example 15, (2S)—N-[[5-Fluoro-2-methoxy-6-[[4-(trifluoromethyl)cyclohexyl]methoxy]-3-pyridyl]methyl]-1-methyl-pyrrolidine-2-carboxamide]
- CLint scaled at 0.5 μM [1]: 50 to 500 L/h/kg
- EC50 [2]: < 20 nM
- Emax [2, 3]: > 70%

Compound: COc1nc(OC[C@H]2CCC(F)(F)C2)c(F)cc1CNC(=O)[C@@H]1CCCN1C [Example 17, (2S)—N-[[6-[[(1S)-3,3-Difluorocyclopentyl]methoxy]-5-fluoro-2-methoxy-3-pyridyl]methyl]-1-methyl-pyrrolidine-2-carboxamide; Fumaric Acid]
- CLint scaled at 0.5 μM [1]: 5 to 50 L/h/kg
- EC50 [2]: 20 to 200 nM
- Emax [2, 3]: 50 to 70%

Compound: COc1nc(OCC(F)(F)C(F)(F)F)c(F)cc1CNC(=O)[C@@H]1CCCN1 [Example 18, (2S)—N-[[5-Fluoro-2-methoxy-6-(2,2,3,3,3-pentafluoropropoxy)-3-pyridyl]methyl]-pyrrolidine-2-carboxamide; Succinic Acid]
- CLint scaled at 0.5 μM [1]: < 5 L/h/kg
- EC50 [2]: < 20 nM
- Emax [2, 3]: > 70%
